Patent US8563715B2, “Pyrimidine derivative having cell protecting effect and uses thereof” (Zenyaku Kogyo Kabushikikaisha, priority 2008, dated 2013)

Row | melting point | SMILES
1 | 170 to 175 °C | Fc1c(N2CCOCC2)nc(N2CCNC(c3ccccc3)C2)nc1N1CCOCC1 (stereo not shown) [Compound 93, 5-fluoro-4,6-dimorpholino-2-(3-phenylpiperazin-1-yl)pyrimidine]
2 | 195 to 198 °C | Fc1ccc(N2CCN(c3nc(N4CCOCC4)c(F)c(N4CCOCC4)n3)CC2)cc1 [Compound 96, 5-fluoro-2-[4-(4-fluorophenyl)piperazin-1-yl]-4,6-dimorpholinopyrimidine]
3 | 171 to 174 °C | Fc1ccc(N2CCN(c3nc(N4CCOCC4)nc(N4CCOCC4)c3F)CC2)cc1 [Compound 97, 5-fluoro-4-[4-(4-fluorophenyl)piperazin-1-yl]-2,6-dimorpholinopyrimidine]
4 | 201 to 203 °C | Cc1ccc(N2CCN(c3nc(N4CCOCC4)c(F)c(N4CCOCC4)n3)CC2)cc1 [Compound 98, 5-fluoro-2-[4-(4-methylphenyl)piperazin-1-yl]-4,6-dimorpholinopyrimidine]
5 | 195 to 198 °C | CC(=O)c1ccc(N2CCN(c3nc(N4CCOCC4)c(F)c(N4CCOCC4)n3)CC2)cc1 [Compound 100, 2-[4-(4-acetylphenyl)piperazin-1-yl]-5-fluoro-4,6-dimorpholinopyrimidine]
6 | 118 °C | Fc1c(N2CCOCC2)nc(N2CCN(c3ccccc3Cl)CC2)nc1N1CCOCC1 [Compound 102, 2-[4-(2-chlorophenyl)piperazin-1-yl]-5-fluoro-4,6-dimorpholinopyrimidine]
7 | 145 °C | CCOc1ccccc1N1CCN(c2nc(N3CCOCC3)c(F)c(N3CCOCC3)n2)CC1 [Compound 103, 2-[4-(2-ethoxyphenyl)piperazin-1-yl]-5-fluoro-4,6-dimorpholinopyrimidine]
8 | 72 °C | Cc1ccccc1N1CCN(c2nc(N3CCOCC3)c(F)c(N3CCOCC3)n2)CC1 [Compound 104, 5-fluoro-2-[4-(2-methylphenyl)piperazin-1-yl]-4,6-dimorpholinopyrimidine]
9 | 144 °C | Fc1ccccc1N1CCN(c2nc(N3CCOCC3)c(F)c(N3CCOCC3)n2)CC1 [Compound 106, 5-fluoro-2-[4-(2-fluorophenyl)piperazin-1-yl]-4,6-dimorpholinopyrimidine]
10 | 141 °C | Oc1ccc(N2CCN(c3nc(N4CCOCC4)c(F)c(N4CCOCC4)n3)CC2)cc1 [Compound 107, 5-fluoro-2-[4-(4-hydroxyphenyl)piperazin-1-yl]-4,6-dimorpholinopyrimidine]
11 | 171 °C | COc1ccccc1N1CCN(c2nc(N3CCOCC3)c(F)c(N3CCOCC3)n2)CC1 [Compound 108, 5-fluoro-2-[4-(2-methoxyphenyl)piperazin-1-yl]-4,6-dimorpholinopyrimidine]
12 | 215 °C | Fc1c(N2CCOCC2)nc(N2CCN(c3ccc(Cl)cc3)CC2)nc1N1CCOCC1 [Compound 109, 2-[4-(4-chlorophenyl)piperazin-1-yl]-5-fluoro-4,6-dimorpholinopyrimidine]
13 | 108 °C | COc1ccccc1N1CCN(c2nc(N(C)C)nc(N3CCOCC3)c2F)CC1 [Compound 111, 2-dimethylamino-5-fluoro-4-[4-(2-methoxyphenyl)piperazin-1-yl]-6-morpholinopyrimidine]
14 | 95 °C | CN(C)c1nc(N2CCOCC2)c(F)c(N2CCN(c3ccccc3F)CC2)n1 [Compound 112, 2-dimethylamino-5-fluoro-4-[4-(2-fluorophenyl)piperazin-1-yl]-6-morpholinopyrimidine]
15 | 152 °C | CN(C)c1nc(N2CCOCC2)c(F)c(N2CCN(c3ccc(Cl)cc3)CC2)n1 [Compound 113, 4-[4-(4-chlorophenyl)piperazin-1-yl]-2-dimethylamino-5-fluoro-6-morpholinopyrimidine]
16 | 177 to 180 °C | OC1(c2ccccc2)CCN(c2nc(N3CCOCC3)c(F)c(N3CCOCC3)n2)CC1 [Compound 116, 5-fluoro-2-(4-hydroxy-4-phenylpiperidin-1-yl)-4,6-dimorpholinopyrimidine]
17 | 128 to 131 °C | OC1(c2ccccc2)CCN(c2nc(N3CCOCC3)nc(N3CCOCC3)c2F)CC1 [Compound 117, 5-fluoro-4-(4-hydroxy-4-phenylpiperidin-1-yl)-2,6-dimorpholinopyrimidine]
18 | 201 to 205 °C | CC(=O)C1(c2ccccc2)CCN(c2nc(N3CCOCC3)c(F)c(N3CCOCC3)n2)CC1 [Compound 118, 2-(4-acetyl-4-phenylpiperidin-1-yl)-5-fluoro-4,6-dimorpholinopyrimidine]

Row | melting point | SMILES
19 | 132 to 135 °C | Fc1c(N2CCOCC2)nc(N2CC=C(c3ccccc3)CC2)nc1N1CCOCC1 [Compound 120, 5-fluoro-4,6-dimorpholino-2-[4-phenyl-1,2,5,6-tetrahydropyridin-1-yl]pyrimidine]
20 | 125 to 128 °C | Fc1c(N2CCOCC2)nc(N2CCOCC2)nc1N1CCN(C2CCCCC2)CC1 [Compound 124, 4-(4-cyclohexylpiperazin-1-yl)-5-fluoro-2,6-dimorpholinopyrimidine]
21 | 71 to 72 °C | Cc1ccccc1N1CCN(c2nc(N3CCN(c4ccccc4F)CC3)nc(N3CCOCC3)c2F)CC1 [Compound 127, 5-fluoro-2-[4-(2-fluorophenyl)piperazin-1-yl]-4-[4-(2-methylphenyl)piperazin-1-yl]-6-morpholinopyrimidine]
22 | 106 to 107 °C | Cc1ccccc1N1CCN(c2nc(N3CCOCC3)c(F)c(N3CCN(c4ccccc4C)CC3)n2)CC1 [Compound 129, 2,4-bis[4-(2-methylphenyl)piperazin-1-yl]-5-fluoro-6-morpholinopyrimidine]
23 | 131 to 133 °C | Clc1c(N2CCOCC2)nc(N2CCN(c3ccccc3)CC2)nc1N1CCOCC1 [Compound 130, 5-chloro-4,6-dimorpholino-2-(4-phenylpiperazin-1-yl)pyrimidine]
24 | 221 to 223 °C | Nc1c(N2CCOCC2)nc(/C=C/c2cccs2)nc1N1CCOCC1 [Compound 132, 5-amino-4,6-dimorpholino-2-[2-(2-thienyl)vinyl]pyrimidine]
25 | 216 to 220 °C | Nc1c(N2CCOCC2)nc(/C=C/c2ccncc2)nc1N1CCOCC1 [Compound 134, 5-amino-4,6-dimorpholino-2-[2-(pyridin-4-yl)vinyl]pyrimidine]
26 | 193 to 195 °C | Nc1c(N2CCOCC2)nc(/C=C/c2ccc(F)cc2)nc1N1CCOCC1 [Compound 135, 5-amino-2-[2-(4-fluorophenyl)vinyl]-4,6-dimorpholinopyrimidine]
27 | 151 to 154 °C | Cc1ccccc1/C=C/c1nc(N2CCOCC2)c(N)c(N2CCOCC2)n1 [Compound 137, 5-amino-2-[2-(2-methylphenyl)vinyl]-4,6-dimorpholinopyrimidine]
28 | 130 to 133 °C | COc1ccc(/C=C/c2nc(N(C)C)c(N)c(N3CCOCC3)n2)cc1 [Compound 138, 5-amino-4-dimethylamino-2-[2-(4-methoxyphenyl)vinyl]-6-morpholinopyrimidine]
29 | 208 to 210 °C | CN(C)c1c(N2CCOCC2)nc(N2CCN(c3ccccc3)CC2)nc1N1CCOCC1 [Compound 141, 5-dimethylamino-4,6-dimorpholino-2-(4-phenylpiperazin-1-yl)pyrimidine]
30 | 162 to 163 °C | O=Cc1c(N2CCOCC2)nc(N2CCN(c3ccccc3)CC2)nc1N1CCOCC1 [Compound 142, 5-formyl-4,6-dimorpholino-2-(4-phenylpiperazin-1-yl)pyrimidine]
31 | 51 to 52 °C | Fc1ccccc1N1CCN(c2nc(N3CCNCC3)c(F)c(N3CCOCC3)n2)CC1 [Compound 182, 5-fluoro-2-[4-(2-fluorophenyl)piperazin-1-yl]-4-morpholino-6-(1-piperazinyl)pyrimidine]
32 | 56 to 57 °C | Cc1cccc(N2CCN(c3nc(N4CCN(C)CC4)nc(N4CCOCC4)c3F)CC2)c1C [Compound 183, 5-fluoro-2-(4-methylpiperazin-1-yl)-4-morpholino-6-[4-(2,3-xylyl)piperazin-1-yl]pyrimidine]
33 | 67 to 68 °C | Cc1cccc(N2CCN(c3nc(N4CCOCC4)c(F)c(N4CCN(C)CC4)n3)CC2)c1C [Compound 184, 5-fluoro-4-(4-methylpiperazin-1-yl)-6-morpholino-2-[4-(2,3-xylyl)piperazin-1-yl]pyrimidine]
34 | 128 to 129 °C | CN1CCN(c2nc(N3CCN(c4ccccc4F)CC3)nc(N3CCOCC3)c2F)CC1 [Compound 185, 5-fluoro-2-[4-(2-fluorophenyl)piperazin-1-yl]-4-(4-methylpiperazin-1-yl)-6-morpholinopyrimidine]
35 | 67 to 68 °C | Cc1cccc(N2CCN(c3nc(N4CCOCC4)nc(N4CCN(C)CC4)c3F)CC2)c1C [Compound 186, 5-fluoro-4-(4-methylpiperazin-1-yl)-2-morpholino-6-[4-(2,3-xylyl)piperazin-1-yl]-pyrimidine]
36 | 70 to 71 °C | Fc1c(N2CCNCC2)nc(N2CCN(c3ccccc3Cl)CC2)nc1N1CCOCC1 [Compound 189, 2-[4-(2-chlorophenyl)piperazin-1-yl]-5-fluoro-4-morpholino-6-(1-piperazinyl)pyrimidine]

Row | SMILES | melting point
37 | Cc1cccc(N2CCN(c3nc(N4CCN(C(=O)OC(C)(C)C)CC4)nc(N4CCOCC4)c3F)CC2)c1C [Compound 177, 2-(4-tert-butoxycarbonylpiperazin-1-yl)-5-fluoro-4-morpholino-6-[4-(2,3-xylyl)piperazin-1-yl]pyrimidine] | 81 to 82 °C
38 | CC(C)(C)OC(=O)N1CCN(c2nc(N3CCN(c4ccccc4F)CC3)nc(N3CCOCC3)c2F)CC1 [Compound 181, 4-(4-tert-butoxycarbonylpiperazin-1-yl)-5-fluoro-2-[4-(2-fluorophenyl)piperazin-1-yl]-6-morpholinopyrimidine] | 137 to 138 °C
39 | CC(C)(C)OC(=O)N1CCN(c2nc(N3CCN(c4ccccc4Cl)CC3)nc(N3CCOCC3)c2F)CC1 [Compound 188, 4-(4-tert-butoxycarbonylpiperazin-1-yl)-2-[4-(2-chlorophenyl)piperazin-1-yl]-5-fluoro-6-morpholinopyrimidine] | 75 to 76 °C
40 | Cc1cccc(N2CCN(c3nc(N4CCN(Cc5ccc(NC(=O)OC(C)(C)C)cc5)CC4)nc(N4CCOCC4)c3F)CC2)c1C [Compound 193, 2-[4-(4-tert-butoxycarbonylaminobenzyl)piperazin-1-yl]-5-fluoro-4-morpholino-6-[4-(2,3-xylyl)piperazin-1-yl]pyrimidine] | 104 to 105 °C
